Measured values from US20240300958A1, “COMPOUNDS AND THE USES AND PHARMACEUTICAL COMPOSITIONS THEREOF” (BEIJING YOUZHUJU NETWORK TECHNOLOGY CO. LTD., priority 2023, published 2024).

target: DDR1 (Homo sapiens (Human), UniProt Q08345); experiment: DDR1 kinase inhibition assay (FAM-labeled peptide), IC50; type: biochemical
Protocol: 1× kinase base buffer (50 mM HEPES, pH 7.5, 0.0015% Brij-35) and a stop buffer (100 mM HEPES, pH 7.5, 0.015% Brij-35, 0.2% Coating Reagent #3, 50 mM EDTA) were prepared for testing kinases.
The compounds were diluted with 100% DMSO to 100 times the highest final inhibitor concentration required in the reaction. 100 μl of dilution of the compound was transferred to wells of a 96-well plate. For example, 100000 nM solution of the compound in DMSO was prepared in this step in case that an inhibitor concentration of 1000 nM is required. 100 μl of 100% DMSO was added to two empty wells of a 96-well plate for no compound control and no enzyme control. This plate was labeled as the source plate. A new 96-well plate with 5 μl of compound transferred from the source plate is used as an intermediate plate. 95 μl of 1× kinase buffer was added to each well of the intermediate plate. The compounds in the intermediate plate was mixed on a shaker for 10 minutes.
5 μl of sample in each well from the 96-well intermediate plate was transferred to the 384-well plate in duplicate. For example, well A1 of the 96-well plate was transferred to wells A2 and A1 of the 384-well plate, and well A2 of the 96-well plate was transferred to wells A3 and A4 of the 384-well plate, and so forth. 2.5× enzyme solution was prepared: 1× kinase basal buffer with added kinase. 2.5× peptide solution was prepared: 1× kinase basal buffer with added FAM-labeled peptide and ATP. To an assay plate already contained 5 μl of 10% dimethyl sulfoxide compound, 2.5× enzyme solution was transferred, and each well of the 384-well assay plate was added 10 μl of 2.5× enzyme solution. After incubation at room temperature for 10 minutes, 2.5× peptide solution was transferred to the assay plate. Each well of the 384-well assay plate was added 10 μl of 2.5× peptide solution. Kinase reaction and termination: incubation at 28° C. for a specified period followed by the addition of 25 μl stop buffer to stop the reaction. The data was read and collected.

Sequence of DDR1 (Q08345 other isoform, or with tags, fused parts or gaps isoform Q08345-2): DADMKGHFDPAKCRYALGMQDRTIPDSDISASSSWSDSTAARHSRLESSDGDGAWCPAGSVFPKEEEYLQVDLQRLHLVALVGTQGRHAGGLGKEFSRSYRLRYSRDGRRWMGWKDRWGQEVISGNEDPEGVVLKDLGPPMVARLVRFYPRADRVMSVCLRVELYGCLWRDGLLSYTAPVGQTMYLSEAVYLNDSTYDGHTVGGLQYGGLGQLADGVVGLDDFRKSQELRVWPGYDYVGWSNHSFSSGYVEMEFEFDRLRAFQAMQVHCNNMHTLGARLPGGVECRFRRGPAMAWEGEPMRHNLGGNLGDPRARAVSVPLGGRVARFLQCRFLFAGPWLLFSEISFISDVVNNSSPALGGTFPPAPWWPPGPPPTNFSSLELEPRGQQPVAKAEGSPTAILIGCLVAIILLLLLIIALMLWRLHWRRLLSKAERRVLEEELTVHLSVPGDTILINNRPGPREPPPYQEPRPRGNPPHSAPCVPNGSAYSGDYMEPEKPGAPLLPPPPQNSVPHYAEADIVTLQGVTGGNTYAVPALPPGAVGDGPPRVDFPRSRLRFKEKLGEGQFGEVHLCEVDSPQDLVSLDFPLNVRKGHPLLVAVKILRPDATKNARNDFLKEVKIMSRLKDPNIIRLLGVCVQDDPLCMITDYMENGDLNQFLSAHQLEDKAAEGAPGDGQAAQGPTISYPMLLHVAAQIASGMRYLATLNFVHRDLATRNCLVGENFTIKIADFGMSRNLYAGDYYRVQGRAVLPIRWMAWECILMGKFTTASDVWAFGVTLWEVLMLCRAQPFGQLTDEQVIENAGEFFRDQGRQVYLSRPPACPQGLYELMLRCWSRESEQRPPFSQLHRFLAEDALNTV

Row | IC50 [nM] | Structure (SMILES)
1 | < 500 | Cc1ccc(C(=O)Nc2ccccn2)cc1C#Cc1cnc2cc(C3CCCCC3)cnn12 [Compound C2]
2 | < 500 | Cc1ccc(C(=O)Nc2ccccn2)cc1C#Cc1cnc2cc(C3C=CCCC3)cnn12 (stereo not drawn) [Compound C3]
3 | < 500 | Cc1ccc(C(=O)Nc2ccccn2)cc1C#Cc1cnc2cc(C3CC=CCC3)cnn12 (stereo not drawn) [Compound C4]
4 | < 500 | Cc1ccc(C(=O)Nc2ccccn2)cc1C#Cc1cnc2cc(C3CCCC3)cnn12 [Compound C5]
5 | < 500 | Cc1ccc(C(=O)Nc2ccccn2)cc1C#Cc1cnc2cc(C3=CCCC3)cnn12 [Compound C6]
6 | < 500 | Cc1ccc(C(=O)Nc2ccccn2)cc1C#Cc1cnc2cc(C3C=CCC3)cnn12 (stereo not drawn) [Compound C7]
7 | < 500 | Cc1ccc(C(=O)Nc2ccccn2)cc1C#Cc1cnc2cc(C3CC=CC3)cnn12 [Compound C8]
8 | < 500 | CCc1ccc(C(=O)Nc2ccccn2)cc1C#Cc1cnc2cc(C3=CCCCC3)cnn12 [Compound C9]
9 | < 500 | CC(C)c1ccc(C(=O)Nc2ccccn2)cc1C#Cc1cnc2cc(C3=CCCCC3)cnn12 [Compound C10]
10 | < 500 | Cc1ccc(C(=O)Nc2ccccn2)cc1-c1cccc(-c2cnc3cc(C4=CCCCC4)cnn23)c1 [Compound C11]
11 | < 500 | Cc1cc(-c2cc(C(=O)Nc3ccccn3)ccc2C)cc(-c2cnc3cc(C4=CCCCC4)cnn23)c1 [Compound C12]
12 | > 1000 | O=C(N[C@H]1CC[C@H](O)CC1)c1ccc2ccc(-c3ccc(NC4CCCCC4)cc3)cc2n1 [DC1, reference compound]
